Consider three molecules from ChEMBL document CHEMBL6120949, “Fully Synthetic TF-Based Self-Adjuvanting Vaccine Simultaneously Triggers iNKT Cells and Mincle and Protects Mice against Tumor Development” (2024).

Molecules are shown by their SMILES. The source made the active and inactive calls. The rule behind the calls is not given here.

Experiment [1] deals with Mus musculus. In words: Antitumor activity in cyclophosphamide-treated Balb/c mouse assessed as rejection of tumor compound administered as liposomes subcutaneously on day 0 in presence of TF followed by administration of booster doses on days 14, 21 and 28 and implantation of mouse TA3/Ha cells on day 35 measured upto 50 days post-tumor challenge followed by re-implantation of another mouse TA3/Ha cells measured for another 100 days post-tumor challenge. The format is functional, organism-based. The conditions noted are these: route sc, time 185.0 day.

The test system of experiment [2] is Mus musculus. In words: Immunization of Balb/c mouse assessed as increase in kappa light chain titer compound administered as liposomes subcutaneously on day 0 in presence of TF followed by administration of booster doses on days 14, 21 and 28 measured on days 21, 27 and 38 by ELISA. The format is functional, organism-based. The conditions noted are these: route sc, time 38.0 day. A general note: An ELISA detects its analyte on a solid surface through an enzyme-linked reagent.

In experiment [3] the test system is Mus musculus. In words: Antitumor activity in cyclophosphamide-treated Balb/c mouse assessed as protection against tumor development compound administered as liposomes subcutaneously on day 0 in presence of TF followed by administration of booster doses on days 14, 21 and 28 and implantation of mouse TA3/Ha cells on day 35 measured upto 50 days post-tumor challenge. The class given is functional, organism-based. The conditions noted are these: route sc, time <= 85.0 day.

Experiment [4] has as its system Mus musculus. Description: Antitumor activity in cyclophosphamide-treated Balb/c mouse assessed as average survival time compound administered as liposomes subcutaneously on day 0 in presence of TF followed by administration of booster doses on days 14, 21 and 28 and implantation of mouse TA3/Ha cells on day 35 measured upto 50 days post-tumor challenge. The format is functional. To be noted: route sc; time <= 85 day.

The test system of experiment [5] is TA3/Ha. In words: Cytotoxicity against TF-positive mouse TA3/Ha cells treated with anti-serum derived from compound-vaccinated mouse for 2 hrs followed by anti-serum washout and addition of rabbit complement serum measured after 1 hr by LDH assay. The format is functional, cell-based.
The test system of experiment [6] is TA3/Ha. Description: Binding ability of anti-serum derived from compound-vaccinated mouse to TF-positive mouse TA3/Ha cells cultured with FITC-labeled anti-IgG Ab assessed as positive fluorescent peak shift by FACS analysis. The format is functional, cell-based. (In general: Flow cytometry measures light scatter and fluorescence of single cells or particles in a stream.)

The test system of experiment [7] is MDA-MB-468. In words: Binding ability of anti-serum derived from compound-vaccinated mouse to TF-negative human MDA-MB-468 cells cultured with FITC-labeled anti-IgG Ab assessed as positive fluorescent peak shift by FACS analysis. The class given is functional, cell-based.
The test system of experiment [8] is MDA-MB-468. In words: Cytotoxicity against TF-negative human MDA-MB-468 cells treated with anti-serum derived from compound-vaccinated mouse for 2 hrs followed by anti-serum washout and addition of rabbit complement serum measured after 1 hr by LDH assay. The format is functional, cell-based.
The subject of experiment [9] is Mus musculus. Description: Antitumor activity in cyclophosphamide-treated surviving Balb/c mouse assessed as increase in IgG antibody titer compound administered as liposomes subcutaneously on day 0 in presence of TF followed by administration of booster doses on days 14, 21 and 28 and implantation of mouse TA3/Ha cells on day 35 measured upto 50 days post-tumor challenge followed by re-implantation of another mouse TA3/Ha cells measured for another 30 days post-tumor challenge by ELISA. The class given is functional, organism-based. To be noted: route sc, time <= 115.0 day.

In experiment [10] the test system is Mus musculus. Description: Immunization of Balb/c mouse assessed as increase in IFN-gamma level compound administered as liposomes subcutaneously on day 0 in presence of TF followed by administration of booster doses on days 14, 21 and 28 measured on days 21, 27 and 38 by ELISA. The class given is functional, organism-based. To be noted: route sc, time 38.0 day.

Experiment [11] has as its system 4T1-Luc. Description: Cytotoxicity against TF-positive mouse 4T1-Luc cells treated with anti-serum derived from compound-vaccinated mouse for 2 hrs followed by anti-serum washout and addition of rabbit complement serum measured after 1 hr by LDH assay. The format is functional, cell-based.
The test system of experiment [12] is Mus musculus. Description: Immunization of Balb/c mouse assessed as decrease in TF-specific IgM titer compound administered as liposomes subcutaneously on day 0 in presence of TF followed by administration of booster doses on days 14, 21 and 28 measured on days 21, 27 and 38 by ELISA. The class given is functional, organism-based. The conditions noted are these: route sc, time 38.0 day.

For experiment [13], the system named is TA3/Ha. In words: Binding ability of anti-serum derived from compound-vaccinated surviving mouse to TF-positive mouse TA3/Ha cells cultured with FITC-labeled anti-IgG Ab assessed as positive fluorescent peak shift by FACS analysis. The class given is functional, cell-based.
In experiment [14] the test system is Mus musculus. In words: Immunization of Balb/c mouse assessed as increase in IgG titer compound administered as liposomes subcutaneously on day 0 in presence of TF followed by administration of booster doses on days 14, 21 and 28 measured on days 21, 27 and 38 by ELISA. To be noted: route sc, time 38.0 day. The class given is functional, organism-based.
The subject of experiment [15] is Mus musculus. Description: Antitumor activity in cyclophosphamide-treated Balb/c mouse assessed as survival ratio compound administered as liposomes subcutaneously on day 0 in presence of TF followed by administration of booster doses on days 14, 21 and 28 and implantation of mouse TA3/Ha cells on day 35 measured upto 50 days post-tumor challenge relative to control. The conditions noted are these: route sc; time <= 85 day. The class given is functional.

The test system of experiment [16] is Mus musculus. In words: Immunization of Balb/c mouse assessed as IgG titer compound administered as liposomes subcutaneously on day 0 in presence of TF followed by administration of booster doses on days 14, 21 and 28 measured on days 21, 27 and 38 by ELISA. The class given is functional. To be noted: route sc; time 38 day.
Experiment [17] relates to 4T1-Luc. In words: Binding ability of anti-serum derived from compound-vaccinated mouse to TF-positive mouse 4T1-Luc cells cultured with FITC-labeled anti-IgG Ab assessed as positive fluorescent peak shift by FACS analysis. The class given is functional, cell-based.
Experiment [18] has as its target T1, C-type lectin domain family 4 member E (Homo sapiens) (UniProt Q9ULY5).
T1 sequence (whole entry): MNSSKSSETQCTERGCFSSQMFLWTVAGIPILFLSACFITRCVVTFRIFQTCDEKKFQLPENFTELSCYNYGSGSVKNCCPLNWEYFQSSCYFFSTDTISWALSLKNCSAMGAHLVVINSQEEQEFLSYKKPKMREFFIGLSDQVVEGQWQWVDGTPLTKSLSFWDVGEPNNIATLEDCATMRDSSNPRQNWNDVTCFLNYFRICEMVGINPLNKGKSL
Description: Binding affinity to Fc-fused human Mincle incubated for 1.5 hrs by ELISA.

Experiment [19] concerns the target T2, Antigen-presenting glycoprotein CD1d1 (Mus musculus) (UniProt P11609).
T2 sequence (whole entry): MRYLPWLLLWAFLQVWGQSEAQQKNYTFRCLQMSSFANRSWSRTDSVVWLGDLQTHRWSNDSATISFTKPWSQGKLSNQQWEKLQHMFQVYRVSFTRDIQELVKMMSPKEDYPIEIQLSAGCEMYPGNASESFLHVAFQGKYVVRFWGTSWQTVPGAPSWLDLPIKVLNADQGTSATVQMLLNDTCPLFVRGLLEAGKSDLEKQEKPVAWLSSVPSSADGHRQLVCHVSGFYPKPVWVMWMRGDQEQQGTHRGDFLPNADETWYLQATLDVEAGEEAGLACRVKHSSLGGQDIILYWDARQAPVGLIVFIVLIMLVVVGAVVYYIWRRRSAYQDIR
Description: Binding affinity to His-tagged mouse CD1d incubated for 1.5 hrs by ELISA.

The subject of experiment [20] is Mus musculus. In words: Antitumor activity in Balb/c mouse assessed as survival ratio compound administered as liposomes subcutaneously on day 0 in presence of TF followed by administration of booster doses on days 14, 21 and 28 and implantation of mouse TA3/Ha cells on day 35 measured upto 50 days post-tumor challenge relative to control. The class given is functional. The conditions noted are these: route sc; time <= 85 day.

For experiment [21], the system named is Mus musculus. In words: Immunization of Balb/c mouse assessed as increase in IgG2a titer compound administered as liposomes subcutaneously on day 0 in presence of TF followed by administration of booster doses on days 14, 21 and 28 measured on days 21, 27 and 38 by ELISA. The class given is functional, organism-based. To be noted: route sc, time 38.0 day.

Experiment [22] concerns Mus musculus. Description: Immunization of Balb/c mouse assessed as IFN-gamma level compound administered as liposomes subcutaneously on day 0 in presence of TF followed by administration of booster doses on days 14, 21 and 28 measured on days 21, 27 and 38 by ELISA. The format is functional. The conditions noted are these: route sc; time 38 day.
For experiment [23], the system named is Mus musculus. In words: Antitumor activity in Balb/c mouse assessed as average survival time compound administered as liposomes subcutaneously on day 0 in presence of TF followed by administration of booster doses on days 14, 21 and 28 and implantation of mouse TA3/Ha cells on day 35 measured upto 50 days post-tumor challenge. The class given is functional. To be noted: route sc; time <= 85 day.

Regarding `CCCCCCCCCC(CCCCCCCCC)CC(=O)OC[C@H]1O[C@H](O[C@H]2O[C@H](COC(=O)CC(CCCCCCCCC)CCCCCCCCC)[C@@H](OCCOCCNC(=O)CCC(=O)NCc3cn(CCO[C@H]4O[C@H](CO)[C@H](O)[C@H](O[C@@H]5O[C@H](CO)[C@H](O)[C@H](O)[C@H]5O)[C@H]4NC(C)=O)nn3)[C@H](O)[C@H]2O)[C@H](O)[C@@H](O)[C@@H]1O`, the outcome in experiment [1], in experiment [3], in [6], in experiment [9], in experiment [10] and in experiment [13] was Active. The result in experiment [14], in [17] and in [18] was Active. For the same molecule, the Activity result was “Active; Compound Induced Strong Tf-Specific And T-Cell-Dependent Immune Response” in experiment [2]; “Active; Result Reveals That The Anti-Serum Induced By Compound Effectively Activated The Complement System” in [5]; “Active; Result Reveals That The Anti-Serum Induced By Compound Effectively Activated The Complement System” in [11]; “Active; Result Reveals That Efficient Conversion Of Igm To Igg Had Occurred And That Long-Term Secondary Immune Responses Had Been Triggered” in experiment [12]; 66937 in [16]. In addition, the Time in [4] was 38.8 days. For the same molecule, the outcome in [7] and in [8] was inactive. In [15], the Survival was determined as 50%.

In the case of `CCCCCCCCCCCCCCCCCCCCCCCCCC(=O)N[C@@H](CO[C@H]1O[C@H](CNC(=O)CCCCC(=O)NCCCC[C@H](NC(=O)CCC(=O)NCCOCCO[C@H]2[C@H](O)[C@@H](O)[C@@H](O[C@H]3O[C@H](COC(=O)CC(CCCCCCCCC)CCCCCCCCC)[C@@H](O)[C@H](O)[C@H]3O)O[C@@H]2COC(=O)CC(CCCCCCCCC)CCCCCCCCC)C(=O)NCc2cn(CCO[C@H]3O[C@H](CO)[C@H](O)[C@H](O[C@@H]4O[C@H](CO)[C@H](O)[C@H](O)[C@H]4O)[C@H]3NC(C)=O)nn2)[C@H](O)[C@H](O)[C@H]1O)[C@H](O)[C@H](O)CCCCCCCCCCCCCC`, the outcome in experiment [1], in [3], in experiment [19], in [21], in [10] and in experiment [13] was Active. Besides, the result in [14] and in experiment [18] was Active. Also, the Activity result is “Active; Compound Induced Strong Tf-Specific And T-Cell-Dependent Immune Response” in [2]; “Active; Result Reveals That The Anti-Serum Induced By Compound Effectively Activated The Complement System” in experiment [5]; “Active; Compound-Derived Antibodies In Antiserum Exhibited Strongest Binding Activity” in experiment [6]; “Active; Exhibited Superior Effect” in experiment [9]; “Active; Result Reveals That The Anti-Serum Induced By Compound Effectively Activated The Complement System” in experiment [11]; “Active; Result Reveals That Efficient Conversion Of Igm To Igg Had Occurred And That Long-Term Secondary Immune Responses Had Been Triggered” in [12]. Also, the Activity is 96611 in experiment [16], 263 pg/mL in experiment [22] and “Active; Compound-Derived Antibodies In Antiserum Exhibited Strongest Binding Activity” in experiment [17]. The results for the Time in experiment [4] and in experiment [23] were 43.8 days and 34.5 days, respectively. Also, the result in experiment [7] and in [8] was inactive. The values for the Survival in [20] and in experiment [15] were 37.5% and 75%, respectively.

With `CCCCCCCCCCCCCCCCCCCCCCCCCC(=O)N[C@@H](CO[C@H]1O[C@H](CNC(=O)CCCCC(=O)NCc2cn(CCO[C@H]3O[C@H](CO)[C@H](O)[C@H](O[C@@H]4O[C@H](CO)[C@H](O)[C@H](O)[C@H]4O)[C@H]3NC(C)=O)nn2)[C@H](O)[C@H](O)[C@H]1O)[C@H](O)[C@H](O)CCCCCCCCCCCCCC`, the result in experiment [1], in experiment [3], in [19], in experiment [6], in experiment [9] and in experiment [10] was Active. Besides, the outcome in [13], in [14] and in [17] was Active. In addition, the Activity result is given as “Active; Compound Induced Strong Tf-Specific And T-Cell-Dependent Immune Response” in experiment [2]; “Active; Result Reveals That The Anti-Serum Induced By Compound Effectively Activated The Complement System” in [5]; “Active; Result Reveals That The Anti-Serum Induced By Compound Effectively Activated The Complement System” in [11]; “Active; Result Reveals That Efficient Conversion Of Igm To Igg Had Occurred And That Long-Term Secondary Immune Responses Had Been Triggered” in [12]; 54112 in experiment [16]. For the same molecule, the Time in [4] came out at 34.4 days. Further, the outcome in experiment [7] and in experiment [8] was inactive. Moreover, the Survival in experiment [15] is 37.5%.
